# In ChEMBL document CHEMBL3885861, “Open TG-GATES”:
# Several values for one entry are separate records, joined by “and”; a condition that tells them apart may be missing. Equal entries are not always repeated.
# Species: Rattus norvegicus
# Test: Open TG-GATES - Regimen: Single
# Assay type: toxicity, organism-based, Sprague-Dawley
# Design: regimen Single, gender Male, age 6 weeks
# Details: in vivo, po, 0 mg/kg, route gavage, dose level Control; for APTT / Bas / Eos / Fbg / Hb / Ht / Lym / MCH / MCHC / MCV / Mono / Neu / PT / Plat / RBC / Ret / WBC: tissue Blood; for KIDNEY_L / KIDNEY_R / KIDNEY_TOTAL: tissue Kidney; for LIVER: tissue Liver
structure (smiles),measurement,setting,value
O=C1CN(/N=C/c2ccc([N+](=O)[O-])o2)C(=O)N1 [NITROFURANTOIN],TERMINAL_BW,3 h,220.5 g and 212 g
same,APTT,3 h,20.2 s and 16.2 s
same,Bas,3 h,0%
same,Eos,3 h,0.8% and 1.4%
same,Fbg,3 h,213.2 mg/dL and 223.8 mg/dL
same,Hb,3 h,13.3 g/dL and 12.9 g/dL
same,Ht,3 h,37.7% and 38.8%
same,Lym,3 h,79.2% and 74%
same,MCH,3 h,21.5 pg
same,MCHC,3 h,35.3% and 33.1%
same,MCV,3 h,60.7 fL and 64.8 fL
same,Mono,3 h,2% and 5%
same,Neu,3 h,16.4% and 20.2%
same,PT,3 h,12.9 s and 12 s
same,Plat,3 h,112.1 x10_4/uL and 122.4 x10_4/uL
same,RBC,3 h,620.6 x10_4/ul and 599.8 x10_4/ul
same,Ret,3 h,7.4% and 6.9%
same,WBC,3 h,98.8 x10_2/uL and 73.8 x10_2/uL
same,KIDNEY_L,3 h,1 g and 0.9 g
same,KIDNEY_R,3 h,1 g and 0.9 g
same,KIDNEY_TOTAL,3 h,2 g and 1.9 g
same,LIVER,3 h,10.4 g and 9.4 g
same,A/G,"3 h, tissue Plasma",1.7 and 2.2
same,ALP,"3 h, tissue Plasma",989 IU/L and 1656.4 IU/L
same,ALT,"3 h, tissue Plasma",38.8 IU/L and 39.2 IU/L
same,AST,"3 h, tissue Plasma",67.6 IU/L and 66.6 IU/L
same,BUN,"3 h, tissue Plasma",11.6 mg/dL and 13 mg/dL
same,CRE,"3 h, tissue Plasma",0.4 mg/dL and 0.3 mg/dL
same,Ca,"3 h, tissue Plasma",10.8 mg/dL and 11.1 mg/dL
same,Cl,"3 h, tissue Plasma",101.6 meq/L and 104 meq/L
same,GLC,"3 h, tissue Plasma",190.2 mg/dL and 202 mg/dL
same,IP,"3 h, tissue Plasma",8.4 mg/dL and 9.1 mg/dL
same,K,"3 h, tissue Plasma",4 meq/L and 4.5 meq/L
same,LDH,"3 h, tissue Plasma",180.2 IU/L and 74.6 IU/L
same,Na,"3 h, tissue Plasma",140.6 meq/L and 139.2 meq/L
same,PL,"3 h, tissue Plasma",135.4 mg/dL and 141.2 mg/dL
same,RALB,"3 h, tissue Plasma",3.5 g/dL and 3.8 g/dL
same,TC,"3 h, tissue Plasma",73.4 mg/dL and 84.8 mg/dL
same,TG,"3 h, tissue Plasma",80.2 mg/dL and 53 mg/dL
same,TP,"3 h, tissue Plasma",5.6 g/dL and 5.5 g/dL
same,gamma-GTP,"3 h, tissue Plasma",1 IU/L
same,TERMINAL_BW,6 h,219 g and 212.6 g
same,APTT,6 h,19.5 s and 16.2 s
same,Bas,6 h,0%
same,Eos,6 h,1%
same,Fbg,6 h,221.8 mg/dL and 224 mg/dL
same,Hb,6 h,12.9 g/dL and 12.6 g/dL
same,Ht,6 h,36.6% and 38.1%
same,Lym,6 h,75.4% and 75.2%
same,MCH,6 h,21.8 pg and 21 pg
same,MCHC,6 h,35.4% and 33.1%
same,MCV,6 h,61.6 fL and 63.7 fL
same,Mono,6 h,3.4% and 6.6%
same,Neu,6 h,18.8% and 17.2%
same,PT,6 h,12.7 s and 12 s
same,Plat,6 h,108.3 x10_4/uL and 124 x10_4/uL
same,RBC,6 h,594.4 x10_4/ul and 598.8 x10_4/ul
same,Ret,6 h,7.9% and 7.7%
same,WBC,6 h,107.6 x10_2/uL and 78.5 x10_2/uL
same,KIDNEY_L,6 h,1 g and 0.9 g
same,KIDNEY_R,6 h,1 g
same,KIDNEY_TOTAL,6 h,2 g and 1.9 g
same,LIVER,6 h,9.8 g
same,A/G,"6 h, tissue Plasma",1.5 and 2.3
same,ALP,"6 h, tissue Plasma",798.6 IU/L and 1341.4 IU/L
same,ALT,"6 h, tissue Plasma",34.4 IU/L and 35.2 IU/L
same,AST,"6 h, tissue Plasma",61 IU/L and 65.8 IU/L
same,BUN,"6 h, tissue Plasma",12 mg/dL and 14.8 mg/dL
same,CRE,"6 h, tissue Plasma",0.4 mg/dL
same,Ca,"6 h, tissue Plasma",10.8 mg/dL and 10.9 mg/dL
same,Cl,"6 h, tissue Plasma",102.4 meq/L and 103.8 meq/L
same,GLC,"6 h, tissue Plasma",185.8 mg/dL and 193.2 mg/dL
same,IP,"6 h, tissue Plasma",8.6 mg/dL and 7.9 mg/dL
same,K,"6 h, tissue Plasma",4.2 meq/L and 4.6 meq/L
same,LDH,"6 h, tissue Plasma",177 IU/L and 74.4 IU/L
same,Na,"6 h, tissue Plasma",140.4 meq/L and 137.2 meq/L
same,PL,"6 h, tissue Plasma",137.2 mg/dL and 147 mg/dL
same,RALB,"6 h, tissue Plasma",3.2 g/dL and 3.8 g/dL
same,TC,"6 h, tissue Plasma",80 mg/dL and 86 mg/dL
same,TG,"6 h, tissue Plasma",54 mg/dL and 118.6 mg/dL
same,TP,"6 h, tissue Plasma",5.4 g/dL
same,gamma-GTP,"6 h, tissue Plasma",1 IU/L and 0.4 IU/L
same,TERMINAL_BW,9 h,214.5 g and 212 g
same,APTT,9 h,19.4 s and 16 s
same,Bas,9 h,0%
same,Eos,9 h,1%
same,Fbg,9 h,216.6 mg/dL and 235.2 mg/dL
same,Hb,9 h,13.5 g/dL and 12.9 g/dL
same,Ht,9 h,38.4% and 39.4%
same,Lym,9 h,77.2% and 72%
same,MCH,9 h,21.4 pg and 21.3 pg
same,MCHC,9 h,35.3% and 32.7%
same,MCV,9 h,60.8 fL and 64.9 fL
same,Mono,9 h,2.8% and 8.8%
same,Neu,9 h,18.2% and 18.4%
same,PT,9 h,12.7 s and 11.8 s
same,Plat,9 h,113.7 x10_4/uL and 107.9 x10_4/uL
same,RBC,9 h,633.4 x10_4/ul and 606 x10_4/ul
same,Ret,9 h,7.1%
same,WBC,9 h,86.1 x10_2/uL and 82.1 x10_2/uL
same,KIDNEY_L,9 h,1 g and 0.9 g
same,KIDNEY_R,9 h,1 g and 0.9 g
same,KIDNEY_TOTAL,9 h,2 g and 1.8 g
same,LIVER,9 h,9.3 g and 10.4 g
same,A/G,"9 h, tissue Plasma",1.6 and 2.2
same,ALP,"9 h, tissue Plasma",901.6 IU/L and 1778 IU/L
same,ALT,"9 h, tissue Plasma",34.4 IU/L and 40.2 IU/L
same,AST,"9 h, tissue Plasma",62.2 IU/L and 71 IU/L
same,BUN,"9 h, tissue Plasma",11.6 mg/dL and 14.6 mg/dL
same,CRE,"9 h, tissue Plasma",0.4 mg/dL and 0.3 mg/dL
same,Ca,"9 h, tissue Plasma",10.6 mg/dL and 11.3 mg/dL
same,Cl,"9 h, tissue Plasma",102.2 meq/L and 104.4 meq/L
same,GLC,"9 h, tissue Plasma",194 mg/dL and 183.2 mg/dL
same,IP,"9 h, tissue Plasma",9.3 mg/dL and 7.7 mg/dL
same,K,"9 h, tissue Plasma",4 meq/L and 4.9 meq/L
same,LDH,"9 h, tissue Plasma",211.8 IU/L and 71.2 IU/L
same,Na,"9 h, tissue Plasma",140.2 meq/L and 137.2 meq/L
same,PL,"9 h, tissue Plasma",143.8 mg/dL and 168 mg/dL
same,RALB,"9 h, tissue Plasma",3.3 g/dL and 3.9 g/dL
same,TBIL,"9 h, tissue Plasma",0.1 mg/dL and 0.038 mg/dL
same,TC,"9 h, tissue Plasma",78.8 mg/dL and 100.6 mg/dL
same,TG,"9 h, tissue Plasma",77.2 mg/dL and 109.6 mg/dL
same,TP,"9 h, tissue Plasma",5.3 g/dL and 5.6 g/dL
same,gamma-GTP,"9 h, tissue Plasma",0.6 IU/L and 1 IU/L
same,TERMINAL_BW,24 h,232.8 g and 218.4 g
same,APTT,24 h,19 s and 15.6 s
same,Bas,24 h,0%
same,Eos,24 h,1%
same,Fbg,24 h,219.8 mg/dL and 239.4 mg/dL
same,Hb,24 h,13.6 g/dL and 13.4 g/dL
same,Ht,24 h,39.2% and 40.4%
same,Lym,24 h,75.2% and 73%
same,MCH,24 h,22 pg and 21.7 pg
same,MCHC,24 h,34.9% and 33.3%
same,MCV,24 h,63.2 fL and 65.2 fL
same,Mono,24 h,3% and 10.2%
same,Neu,24 h,19.6% and 15.6%
same,PT,24 h,12.5 s and 11.7 s
same,Plat,24 h,119.5 x10_4/uL and 120.8 x10_4/uL
same,RBC,24 h,620.4 x10_4/ul and 619 x10_4/ul
same,Ret,24 h,7% and 6.5%
same,WBC,24 h,95.9 x10_2/uL and 73.9 x10_2/uL
same,KIDNEY_L,24 h,1 g
same,KIDNEY_R,24 h,1.1 g and 1 g
same,KIDNEY_TOTAL,24 h,2.1 g and 2 g
same,LIVER,24 h,11.1 g and 10.1 g
same,A/G,"24 h, tissue Plasma",1.4 and 2.4
same,ALP,"24 h, tissue Plasma",1022.4 IU/L and 1561.4 IU/L
